Consider 3 molecules from patent US20260216156A1, “METHODS AND COMPOSITIONS FOR THE TREATMENT OF HEARING DISORDERS” (Gateway Biotechnology, Inc., priority 2023, published 2026).

A word on the solubility: it is the dissolved amount per volume that the medium holds. Lower therefore signals little dissolved substance. The term bioavailability denotes dose-corrected exposure relative to a reference, in per cent.

For data set [1] the following is noted: after feeding to rats; cited from earlier work.
For data set [2] the following is noted: anesthetized rats, cited from earlier work.
The nature of data set [3]: Microemulsion formulation: NMDP solubility and droplet size. Format: physicochemical. To be noted: aqueous with cosolvent or surfactant or cyclodextrin, 8% Labrafil M 1944CS, 30% Cremophor RH 40/ethanol (3:1) and water.
Data set [4] is described as follows: Ciliotoxicity of microemulsion formulation. The note with it: microemulsion: 8% Labrafil M 1944CS, 30% Cremophor RH 40/ethanol (3:1) and water.
The conditions of data set [5]: cited from earlier work.
The test system of data set [6] is mice suffering from noise induced tinnitus. Put plainly: Sound-based avoidance detection (SBAD), Go trials. Format: in vivo. As to the method:
Using a shuttle box divided into two compartments, mice were trained to cross from side to side with sound cues in the “Go” trials and remain still in the absence of sound in the “No-Go” trials for 15 days. […] The sound cues were randomly played as white noise or narrow-band noise at 5, 10, 16, 20, and 32 kHz with sound intensities randomly at 75, 80, or 85 dB. […] Additionally, a hurdle was added on training 11 to reinforce the training. After the 15th training day, mice were tested for 3 days to obtain a baseline score to be compared after noise exposure, as well as retraining for 3 days. Following the successful completion of training so that mice reached a high percentage of success in the trials, the mice were exposed to a noise-induced trauma for tinnitus. To ensure that the mice still have their hearing, one ear was protected with an ear plug, while the other ear was exposed to the noise. The mice were placed in a sound booth where they were exposed to 120 dB broadband noise at 4-25 kHz for 2-4 hours. Following the noise exposure, the mice were housed for one month, and then tested to see if they have developed tinnitus. In these testing periods, the mice were tested for three days in the shuttle boxes, where they underwent the Go and No-Go trials, however in the No-Go trials the mice were not shocked, as it is expected that mice with tinnitus would cross compartments in the absence of a sound cue. The mice were continued to be shocked in the Go trials in order to ensure that they have retained their hearing and can hear the sound cues. […] To insure there is a significant difference in the No-Go trial scores, chi-square tests were completed comparing the post-noise exposure tests to the baseline tests. However, if tinnitus is not present in the mice, tests were done after waiting one more month, and another if needed. Mice received dosages of NMDP initially via intraperitoneal injection (i.p.). The Go and No-Go scores for the tests were compared using chi-square tests in Social Science Statistics. […]

Data set [7] shares this test system. As to the kind of experiment: Sound-based avoidance detection (SBAD), No-Go trials. Format: in vivo. To be noted: for No-Go trial correct rate: tinnitus mice. The protocol:
Using a shuttle box divided into two compartments, mice were trained to cross from side to side with sound cues in the “Go” trials and remain still in the absence of sound in the “No-Go” trials for 15 days. […] The sound cues were randomly played as white noise or narrow-band noise at 5, 10, 16, 20, and 32 kHz with sound intensities randomly at 75, 80, or 85 dB. […] Additionally, a hurdle was added on training 11 to reinforce the training. After the 15th training day, mice were tested for 3 days to obtain a baseline score to be compared after noise exposure, as well as retraining for 3 days. Following the successful completion of training so that mice reached a high percentage of success in the trials, the mice were exposed to a noise-induced trauma for tinnitus. To ensure that the mice still have their hearing, one ear was protected with an ear plug, while the other ear was exposed to the noise. The mice were placed in a sound booth where they were exposed to 120 dB broadband noise at 4-25 kHz for 2-4 hours. Following the noise exposure, the mice were housed for one month, and then tested to see if they have developed tinnitus. In these testing periods, the mice were tested for three days in the shuttle boxes, where they underwent the Go and No-Go trials, however in the No-Go trials the mice were not shocked, as it is expected that mice with tinnitus would cross compartments in the absence of a sound cue. The mice were continued to be shocked in the Go trials in order to ensure that they have retained their hearing and can hear the sound cues. […] To insure there is a significant difference in the No-Go trial scores, chi-square tests were completed comparing the post-noise exposure tests to the baseline tests. However, if tinnitus is not present in the mice, tests were done after waiting one more month, and another if needed. Mice received dosages of NMDP initially via intraperitoneal injection (i.p.). The Go and No-Go scores for the tests were compared using chi-square tests in Social Science Statistics. […] Following this conclusion, the mice were tested accordingly to determine if their No-Go scores could be improved by different drug doses and combinations.

The conditions of data set [8]: cited from earlier work; for Bioavailability outside of the central nervous system: humans.
Data set [9] is described as follows: Pharmacokinetics after intranasal administration, blood samples, NMDP by HPLC. The format is in vivo.

Like-named read-outs stand apart in the source and are kept apart here. Where only a bound is given, the exact number is not on record here.

Regarding Phaseolus vulgaris hemagglutinin, the oral bioavailability result in data set [1] is “more than 10%”.

In the case of “human growth hormone: human growth hormone, nasal bioavailability modestly increased by N-acetyl-L-cysteine”, the nasal bioavailability in data set [2] (with N-acetyl-L-cysteine) is recorded as 12.2%; in data set [2] (without N-acetyl-L-cysteine), 7.5%.

Molecule `COCCOC(=O)C1=C(C)NC(C)=C(C(=O)OC(C)C)C1c1cccc([N+](=O)[O-])c1` (centres unmarked) [NMDP, nimodipine] yielded a solubility in data set [3] of at most 6400 µg/mL. Further, in data set [4], the ciliotoxicity result is “no ciliotoxicity”. In addition, the Water solubility in [5] was 12 µg/mL. Further, in [5], the “water solubility (in words)” value is recorded as “poor water solubility”. Also, the solubility in ethanol result in data set [5] (ethanol) is “freely soluble”. Also, the “Go trial correct rate” value in data set [6] (10 mg/kg i.p.) and in [6] (30 mg/kg i.p.) was around 100 % correct in each case. Also, in data set [6] (i.p.), the “Go scores: effect on ability to hear the sounds presented” value is “did not have an effect”. In data set [7] (mice, 10, 30, and 50 mg/kg i.p.), the “No-Go scores: behavioral changes” value is given as “did not cause any behavioral changes”. Also, the “No-Go trial correct rate” value is recorded as around 100 % correct in data set [7] (30 mg/kg i.p.); around 100 % correct in data set [7] (50 mg/kg i.p.); around 100 % correct in [7] (intranasal formulation of Example 15 F1, 0.9 mg/mouse (or 30 mg/kg)). Further, the “share of NMDP reaching the brain” value in data set [8] (due to high affinity binding of plasma proteins) is 5%. The “Bioavailability outside of the central nervous system” value was 100% in data set [8] (intravenous administration) and 3-30% in data set [8] (oral administration, extensive first-pass metabolism). The “pharmacokinetics, intranasal versus intravenous” value in data set [9] (Example 1: carrier, citrate buffer, benzalkonium chloride, water, about 50 mg/mL, 50 μL per nasal cavity) is recorded as “comparable to that of intravenously administered NMDP”; in data set [9] (Example 2: carriers, non-aqueous solvent, surfactant, about 50 mg/mL, 50 μL per nasal cavity), “comparable to that of intravenously administered NMDP”; in [9] (Example 3: mPEG350, PEG400, water, no non-ionic surfactant, about 100 mg/ml, 50 μL per nasal cavity), “comparable to that of intravenously administered NMDP”; in [9] (Example 4: mPEG350, PEG400, water, ethanol, no non-ionic surfactant, about 100 mg/mL, 50 μL per nasal cavity), “comparable to that of intravenously administered NMDP”; in data set [9] (Example 7: six volunteer subjects with tinnitus, nasal spray of Example 5, 50 μL per nare, about 20 mg) it was “comparable to that of intravenously administered NMDP”; in [9] (Example 8: vesicular composition (phospholipid, C2-C4 alcohols, water), about 200 mg/mL, 50 μL per nasal cavity) it was “comparable to that of intravenously administered NMDP”. For the same molecule, the bioavailability in [9] (human, plasma, inhaled or intranasal, microemulsion, single intranasal administration, 2 mg/kg, read-out: absolute bioavailability) was around 32%. Moreover, the “time of plasma concentration peak” value in data set [9] (microemulsion, single intranasal administration, 2 mg/kg) was determined as 1 h.
